The source of these data is the NIST ThermoML archive (doi:10.1016/j.jct.2014.01.028).

Numbers after ± are expanded uncertainties.

The conditions of this data set: for electrical conductivity / mass density / viscosity: 101.33 kPa, Liquid; for electrical conductivity: Alternating current cell with electrodes; for mass density: Pycnometric method; for viscosity: Capillary tube (Ostwald / Ubbelohde) method; for Glass transition temperature: DTA.

Regarding `C[n+]1ccn(CCCCn2cc[n+](C)c2)c1.c1c[n-]cn1.c1c[n-]cn1`, the Glass transition temperature is -54.34 ± 2 °C. Also, where the note is “293.15 K”, the electrical conductivity worked out at 0.0266 ± 0.0008 S/m and the mass density amounted to 1177.4 ± 3.7 kg/m3. In addition, where the note is “303.15 K”, the electrical conductivity was determined as 0.0686 ± 0.0022 S/m, the viscosity was 3058 ± 220 mPa·s and the mass density was determined as 1172.8 ± 3.7 kg/m3. In addition, for the setting “313.15 K”, the electrical conductivity is 0.146 ± 0.0047 S/m, the viscosity is given as 1003 ± 64 mPa·s and the mass density came out at 1166.9 ± 3.7 kg/m3. In addition, where the note is “323.15 K”, the electrical conductivity worked out at 0.283 ± 0.009 S/m, the viscosity was found to be 427.1 ± 22 mPa·s and the mass density was 1158.7 ± 3.7 kg/m3. Also, under “333.15 K”, the electrical conductivity was found to be 0.498 ± 0.016 S/m, the viscosity was determined as 206.3 ± 9.1 mPa·s and the mass density came out at 1154.3 ± 3.7 kg/m3. Moreover, under “343.15 K”, the electrical conductivity came out at 0.955 ± 0.03 S/m, the viscosity is reported as 111.5 ± 4.6 mPa·s and the mass density was determined as 1148.9 ± 3.7 kg/m3.
For `C[n+]1ccn(CCn2cc[n+](C)c2)c1.c1c[n-]cn1.c1c[n-]cn1`, the Glass transition temperature was -56.18 ± 2 °C. Also, under “293.15 K”, the electrical conductivity was 0.0111 ± 0.00035 S/m and the mass density amounted to 1210.8 ± 3.9 kg/m3. Under “303.15 K”, the electrical conductivity was determined as 0.0309 ± 0.00098 S/m, the viscosity is recorded as 6306 ± 530 mPa·s and the mass density was determined as 1206 ± 3.9 kg/m3. Also, where the note is “313.15 K”, the electrical conductivity was found to be 0.0684 ± 0.0022 S/m, the viscosity was 2538 ± 180 mPa·s and the mass density stood at 1200 ± 3.9 kg/m3. Moreover, for the setting “323.15 K”, the electrical conductivity is 0.145 ± 0.0046 S/m, the viscosity came out at 854.7 ± 52 mPa·s and the mass density came out at 1191.5 ± 3.9 kg/m3. For the setting “333.15 K”, the electrical conductivity was determined as 0.254 ± 0.0081 S/m, the viscosity is 440.2 ± 22 mPa·s and the mass density was 1185.7 ± 3.9 kg/m3. Besides, where the note is “343.15 K”, the electrical conductivity turned out to be 0.425 ± 0.013 S/m, the viscosity is recorded as 145.1 ± 8.2 mPa·s and the mass density was found to be 1178.9 ± 3.9 kg/m3.
As for `C[n+]1ccn(CCO)c1.c1c[n-]cn1` [1-(2-hydroxyethyl)-3-methylimidazolium imidazolide], the Glass transition temperature was -54.01 ± 2 °C. For the setting “293.15 K”, the electrical conductivity was 0.000168 ± 5e-06 S/m and the mass density stood at 1301 ± 4.5 kg/m3. Also, under “303.15 K”, the electrical conductivity was found to be 0.000636 ± 2e-05 S/m, the viscosity is listed as 8896 ± 790 mPa·s and the mass density amounted to 1295.7 ± 4.5 kg/m3. In addition, under “313.15 K”, the electrical conductivity was 0.00229 ± 7e-05 S/m, the viscosity is 3632 ± 280 mPa·s and the mass density is reported as 1289.8 ± 4.5 kg/m3. Under “323.15 K”, the electrical conductivity came out at 0.00646 ± 0.00021 S/m, the viscosity came out at 1255 ± 82 mPa·s and the mass density turned out to be 1283.7 ± 4.5 kg/m3. Also, under “333.15 K”, the electrical conductivity turned out to be 0.0174 ± 0.00055 S/m, the viscosity stood at 615.2 ± 34 mPa·s and the mass density came to 1278.1 ± 4.5 kg/m3. Besides, where the note is “343.15 K”, the electrical conductivity was found to be 0.0391 ± 0.0013 S/m, the viscosity is listed as 290.4 ± 14 mPa·s and the mass density came out at 1272.3 ± 4.4 kg/m3.
As for `C[n+]1ccn(CCCN)c1.c1c[n-]cn1` [1-(3-aminopropyl)-3-methylimidazolium imidazolide], the Glass transition temperature was -55.02 ± 2 °C. Further, where the note is “293.15 K”, the electrical conductivity turned out to be 0.0842 ± 0.0027 S/m, the viscosity came out at 220 ± 9.6 mPa·s and the mass density turned out to be 1148.4 ± 3.5 kg/m3. For the same compound, for the setting “303.15 K”, the electrical conductivity was found to be 0.166 ± 0.0053 S/m, the viscosity amounted to 98.4 ± 4 mPa·s and the mass density is on record as 1143.1 ± 3.5 kg/m3. Besides, where the note is “313.15 K”, the electrical conductivity was 0.304 ± 0.0097 S/m, the viscosity turned out to be 54.5 ± 2 mPa·s and the mass density was found to be 1137.5 ± 3.5 kg/m3. For the same compound, under “323.15 K”, the electrical conductivity was found to be 0.504 ± 0.016 S/m, the viscosity turned out to be 32.1 ± 1.2 mPa·s and the mass density stood at 1131.8 ± 3.5 kg/m3. Under “333.15 K”, the electrical conductivity is 0.738 ± 0.024 S/m, the viscosity was found to be 19.9 ± 0.7 mPa·s and the mass density came out at 1126.3 ± 3.5 kg/m3. For the setting “343.15 K”, the electrical conductivity stood at 1.09 ± 0.035 S/m, the viscosity was determined as 13.7 ± 0.5 mPa·s and the mass density was determined as 1120.8 ± 3.5 kg/m3.
On to `CCCCn1cc[n+](C)c1.c1c[n-]cn1` [1-butyl-3-methylimidazolium imidazolide], for which the Glass transition temperature was -56.01 ± 2 °C. Further, where the note is “293.15 K”, the electrical conductivity came to 0.0737 ± 0.0023 S/m, the viscosity worked out at 533.3 ± 28 mPa·s and the mass density was 1085.3 ± 3.2 kg/m3. Besides, under “303.15 K”, the electrical conductivity amounted to 0.15 ± 0.0048 S/m, the viscosity is 272.6 ± 13 mPa·s and the mass density was determined as 1079.9 ± 3.2 kg/m3. For the same compound, for the setting “313.15 K”, the electrical conductivity came to 0.284 ± 0.009 S/m, the viscosity worked out at 140 ± 6 mPa·s and the mass density came to 1073.2 ± 3.2 kg/m3. Also, where the note is “323.15 K”, the electrical conductivity worked out at 0.481 ± 0.015 S/m, the viscosity came out at 76.8 ± 2.9 mPa·s and the mass density turned out to be 1066.5 ± 3.2 kg/m3. In addition, for the setting “333.15 K”, the electrical conductivity was 0.713 ± 0.023 S/m, the viscosity was 47.5 ± 1.7 mPa·s and the mass density came out at 1060.4 ± 3.2 kg/m3. Besides, for the setting “343.15 K”, the electrical conductivity was 1.01 ± 0.032 S/m, the viscosity is on record as 34 ± 1.2 mPa·s and the mass density worked out at 1054.1 ± 3.2 kg/m3.
With `CCn1cc[n+](C)c1.c1c[n-]cn1` [1-ethyl-3-methylimidazolium imidazolide], the Glass transition temperature is -60.01 ± 2 °C. Besides, where the note is “293.15 K”, the electrical conductivity came to 0.27 ± 0.0086 S/m, the viscosity was 191.8 ± 8.1 mPa·s and the mass density is 1113.5 ± 3.3 kg/m3. For the setting “303.15 K”, the electrical conductivity amounted to 0.487 ± 0.015 S/m, the viscosity is 87.9 ± 3.5 mPa·s and the mass density was determined as 1106.7 ± 3.3 kg/m3. Further, under “313.15 K”, the electrical conductivity came to 0.804 ± 0.026 S/m, the viscosity is reported as 42.4 ± 1.6 mPa·s and the mass density came to 1100.3 ± 3.3 kg/m3. Also, under “323.15 K”, the electrical conductivity turned out to be 1.24 ± 0.039 S/m, the viscosity turned out to be 22.9 ± 0.9 mPa·s and the mass density stood at 1092.5 ± 3.3 kg/m3. Also, for the setting “333.15 K”, the electrical conductivity came to 1.69 ± 0.054 S/m, the viscosity amounted to 14.8 ± 0.5 mPa·s and the mass density is given as 1086.3 ± 3.3 kg/m3. Under “343.15 K”, the electrical conductivity was determined as 2.11 ± 0.067 S/m, the viscosity was determined as 8.6 ± 0.3 mPa·s and the mass density amounted to 1079.7 ± 3.3 kg/m3.
